#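 Values below derive from 48-hour exposures of cells grown in 96-well plates, with endpoints linearly interpolated between the two concentrations bracketing the appropriate inhibition level. GI50 marks 50% less growth. At the TGI there is no net growth.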
# Tests used:
# Assay in all cases: NCI tumour cell line growth inhibition, 48 h
# [1] = test system: K-562 leukemia
# [2] = test system: NCI-H226 lung
# [3] = test system: HT29 colon
# [4] = test system: SF-539 CNS
# [5] = test system: 786-0 renal
# [6] = test system: SF-268 CNS
# [7] = test system: A549 NSCLC
# [8] = test system: BT-549 breast
Compound,GI50 [1],TGI [1],GI50 [2],TGI [2],GI50 [3],TGI [3],GI50 [4],TGI [4],GI50 [5],TGI [5],GI50 [6],TGI [6],GI50 [7],TGI [7],GI50 [8],TGI [8]
CC(=O)N1CCN(CCOc2ccc(C3CCN(C4=Nn5c(nnc5C(F)(F)F)CC4)CC3)cc2)CC1,8.25 µM,> 100 µM,34.8 µM,> 100 µM,9.08 µM,> 100 µM,22.5 µM,> 100 µM,25.1 µM,> 100 µM,77.9 µM,> 100 µM,41.4 µM,> 100 µM,26.2 µM,> 100 µM
C1CC[N-]CC1.CC(=N\O)/C(C)=N/O.CC(=N\O)/C(C)=N/O.[CH2-]CCN1CCOCC1.[Co+2],> 100 µM,> 100 µM,> 100 µM,> 100 µM,> 100 µM,> 100 µM,> 100 µM,> 100 µM,> 100 µM,> 100 µM,> 100 µM,> 100 µM,> 100 µM,> 100 µM,> 100 µM,> 100 µM
COc1cc2c(cc1OC)-c1ncc3cc4c(cc3c1C2)OCO4,19 µM,> 100 µM,,,> 100 µM,> 100 µM,23.4 µM,56.1 µM,18.3 µM,45.5 µM,,,34.2 µM,> 100 µM,,
COC(=O)[C@]12CC[C@@H](C)[C@H](C)[C@@H]1C1=CC[C@@H]3[C@@]4(C)CC(=O)[C@H](OC(=O)c5ccco5)[C@@]5(C)COC(=C45)C[C@@]3(C)[C@]1(C)CC2,0.413 µM,> 100 µM,83.1 µM,> 100 µM,0.523 µM,> 100 µM,7.56 µM,> 100 µM,2.24 µM,> 100 µM,4.86 µM,> 100 µM,6.31 µM,> 100 µM,2.91 µM,> 100 µM
O=C(CCl)Nc1cc(O)c2c(c1)C(=O)c1cccc(O)c1C2=O,0.353 µM,4.22 µM,1.31 µM,4.93 µM,1.99 µM,3.89 µM,2.29 µM,6.6 µM,1.99 µM,4.16 µM,1.69 µM,3.9 µM,7.44 µM,48.5 µM,1.24 µM,3.3 µM
O=C(Nc1ccc(I)cc1F)c1cc(I)ccc1O,0.434 µM,> 100 µM,0.739 µM,6.11 µM,3.71 µM,> 100 µM,0.651 µM,16.2 µM,1.03 µM,9.51 µM,0.704 µM,> 100 µM,1.15 µM,> 100 µM,0.548 µM,2.48 µM
CN1CCN(CCOc2ccc(-c3cnc4c(-c5ccc(F)cc5)cnn4c3)cc2)CC1,0.365 µM,2.3 µM,,,1.65 µM,4.28 µM,1.27 µM,2.57 µM,1.73 µM,3.2 µM,2.03 µM,5.31 µM,1.71 µM,3.45 µM,2.68 µM,9.44 µM
COc1cc([C@@H]2c3cc4c(cc3C(OC3O[C@@H]5COC(C)O[C@H]5[C@H](O)[C@H]3O)C3COC(=O)[C@@H]32)OCO4)cc(OC)c1O (some centres not stated),1.53 µM,> 30.3 µM,0.792 µM,7.25 µM,5.42 µM,20.3 µM,0.635 µM,3.78 µM,0.976 µM,3.67 µM,1.22 µM,15.4 µM,0.363 µM,> 39.1 µM,1.66 µM,> 29.2 µM
CCOc1cc(C(C)(C)C)ccc1C1=N[C@@](C)(c2ccc(Cl)cc2)[C@@](C)(c2ccc(Cl)cc2)N1C(=O)N1CCN(CCS(C)(=O)=O)CC1,3.9 µM,21.7 µM,0.5 µM,2.13 µM,2.29 µM,4.74 µM,2.32 µM,6.16 µM,4 µM,14.5 µM,3.82 µM,17.4 µM,0.975 µM,5.31 µM,3.24 µM,10 µM
O=S(=O)(O)ONC1=NCCN1,> 100 µM,> 100 µM,> 100 µM,> 100 µM,58.1 µM,> 100 µM,> 100 µM,> 100 µM,90.6 µM,> 100 µM,> 100 µM,> 100 µM,> 100 µM,> 100 µM,,
CCOC(=S)SCN1C(=O)c2ccccc2S1(=O)=O,35.7 µM,> 100 µM,29.2 µM,80.9 µM,14 µM,45.9 µM,24.7 µM,58.5 µM,20.9 µM,47.9 µM,29.5 µM,> 100 µM,23.9 µM,58.3 µM,16 µM,38.4 µM
CCCCCCNC(=O)Oc1ccc(/C(=C(\C)c2ccccc2)c2ccc(OCCN(CC)CC)cc2)cc1,1.36 µM,5.31 µM,6.67 µM,14.3 µM,1.17 µM,2.9 µM,3.47 µM,9.79 µM,1.5 µM,5.33 µM,5.54 µM,13.1 µM,5.11 µM,11.4 µM,6.05 µM,12.5 µM
O=C(NCCCCOCC#Cc1ccccc1C#CCS(=O)(=O)c1ccccc1)c1cc2ccccc2[nH]1,6.83 µM,> 50 µM,9.85 µM,25 µM,13.7 µM,> 50 µM,12.1 µM,26.8 µM,12.8 µM,34.8 µM,12.4 µM,> 43.1 µM,16.8 µM,> 50 µM,8.38 µM,> 27.1 µM
Cc1nnc(-c2ccc(-c3nc4ccccc4o3)cc2)o1,29.5 µM,> 100 µM,,,,,> 100 µM,> 100 µM,> 100 µM,> 100 µM,28.6 µM,92.2 µM,26.1 µM,> 100 µM,65.5 µM,> 100 µM
COc1cc(/C=N\O)nc(-c2ccccn2)c1,,> 100 µM,,,,> 100 µM,,> 32.8 µM,,> 100 µM,,> 100 µM,,> 100 µM,,> 100 µM

# From PubChem BioAssay (NCI)
